# Patent US9862701B2, “Inhibitors of KRAS G12C mutant proteins” (Araxes Pharma LLC, priority 2014, dated 2018)
# Target: T1, KRAS G12C 1-169, his-tagged protein, GDP-loaded (Homo sapiens, UniProt P01116, G12C)
# T1 construct: KRAS G12C 1-169, his-tagged protein, GDP-loaded
# Experiment: Biochemical assay: covalent binding to KRAS G12C, analyzed by mass spectrometry
# Conditions: percent of KRAS G12C protein covalently bound to test compound; 2 μm protein, room temperature
# Description: Test compounds were prepared as 10 mM stock solutions in DMSO (Fisher cat# BP-231-100). KRAS G12C 1-169, his-tagged protein, GDP-loaded was diluted to 2 μm in buffer (20 mM Hepes, 150 mM NaCl, 1 mM MgCl2). Compounds were tested for activity as follows:
# Compounds were diluted to 50× final test concentration in DMSO in 96-well storage plates. Compound stock solutions were vortexed before use and observed carefully for any sign of precipitation. Dilutions were as follow: • For 100 μM final compound concentration, compounds were diluted to 5000 μM (5 μl 10 mM compound stock+5 μl DMSO and mixed well by pipetting. • For 30 μM final compound concentration, compounds were diluted to 1500 μM (3 μl 10 mM compound stock+17 μl DMSO) and mixed well by pipetting. • For 10 μM final compound concentration, compounds were diluted to 500 μM (2 μl 10 mM compound stock+38 μl DMSO) and mixed well by pipetting. 49 μl of the stock protein solution was added to each well of a 96-well PCR plate (Fisher cat#1423027). 1 μl of the diluted 50× compounds were added to appropriate wells in the PCR plate using 12-channel pipettor. Reactions were mixed carefully and thoroughly by pipetting up/down with a 200 μl multi-channel pipettor. The plate was sealed well with aluminum plate seal, and stored in drawer at room temperature for 24 hrs. 5 μl of 2% formic acid (Fisher cat# A117) in DI H2O was then added to each well followed by mixing with a pipette. The plate was then resealed with aluminum seal and stored on dry ice until analyzed as described below.
# The above described assays were analyzed by mass spectrometry according to the following procedure:
# The MS instrument is set to positive polarity, 2 GHz resolution, and low mass (1700) mode and allowed to equilibrate for 30 minutes. The instrument is then calibrated, switched to acquisition mode and the appropriate method loaded.
# After another 30 minute equilibration time, a blank batch (i.e., buffer) is run to ensure equipment is operating properly. The samples are thawed at 37° C. for 10 minutes, briefly centrifuged, and transfer to the bench top. Wells A1 and H12 are spiked with 1 uL 500 uM internal standard peptide, and the plates centrifuged at 2000×g for 5 minutes. The method is then run and masses of each individual well recorded.
# The masses (for which integration data is desired) for each well are pasted into the platemap and exported from the analysis. Masses for the internal standards are exported as well. The data at 50 ppm is extracted for the +19 charge state, and identity of well A1 is assigned using the internal standard spike and integrated. Peak data is exported as a TOF list and the above steps are repeated individually, for the +20, 21, 22, 23, 24, and 25 charge states.
row,SMILES,Binding %
1,"C=CC(=O)N1CCN(c2ccc(-c3c(C)ccc4[nH]ncc34)c3cn[nH]c23)CC1 [Compound 26, 1-(4-(5′-methyl-1H,1′H-4,4′-biindazol-7-yl)piperazin-1-yl)prop-2-en-1-one]",+ (indicates binding activity from 5% to 10%)
2,"C=CC(=O)N1CCN(Cc2ccc(-c3ccccc3C(F)(F)F)cc2O)CC1 [Compound 21, 1-(4-((3-hydroxy-2′-(trifluoromethyl)biphenyl-4-yl)methyl)piperazin-1-yl)prop-2-en-1-one]",+ (indicates binding activity from 5% to 10%)
3,"C=CC(=O)N1CCN(c2ccc(-c3cc(O)ccc3Cl)c3cn[nH]c23)CC1 [Compound 24, 1-(4-(4-(2-chloro-5-hydroxyphenyl)-1H-indazol-7-yl)piperazin-1-yl)prop-2-en-1-one]",++++ (indicates binding activity greater than 30%)
4,"C=CC(=O)N1CCN(c2ccc(-c3cc(OC)cc(Cl)c3Cl)cc2)CC1 [Compound 3, 1-(4-(2′,3′-dichloro-5′-methoxybiphenyl-4-yl)piperazin-1-yl)prop-2-en-1-one]",+ (indicates binding activity from 5% to 10%)
5,"C=CC(=O)N1CCN(c2ccc(-c3cc(O)cc(Cl)c3)cc2)CC1 [Compound 2, 1-(4-(3′-chloro-5′-hydroxybiphenyl-4-yl)piperazin-1-yl)prop-2-en-1-one]",++ (indicates binding activity greater than 10% and up to 20%)
6,"C=CC(=O)N1CCN(c2ccc(-c3c(O)cccc3F)cc2)CC1 [Compound 25, 1-(4-(2′-fluoro-6′-hydroxybiphenyl-4-yl)piperazin-1-yl)prop-2-en-1-one]",+ (indicates binding activity from 5% to 10%)
7,"C=CC(=O)N1CCN(c2ccc(-c3cc(O)ccc3Cl)cn2)CC1 [Compound 8, 1-(4-(5-(2-chloro-5-hydroxyphenyl)pyridin-2-yl)piperazin-1-yl)prop-2-en-1-one]",++ (indicates binding activity greater than 10% and up to 20%)
8,"C=CC(=O)N1CCN(c2ccc(-c3cc(O)ccc3Cl)c(C#N)c2)CC1 [Compound 11, 4-(4-acryloylpiperazin-1-yl)-2′-chloro-5′-hydroxybiphenyl-2-carbonitrile]",+++ (indicates binding activity greater than 20% and up to 30%)
9,"C=CC(=O)N1CCC(Cn2ccc(-c3ccccc3C(F)(F)F)cc2=O)CC1 [Compound 13, 1-((1-acryloylpiperidin-4-yl)methyl)-4-(2-(trifluoromethyl)phenyl) pyridin-2(1H)-one]",+ (indicates binding activity from 5% to 10%)
10,"C=CC(=O)N1CCC(Cn2ccc(-c3cc(O)ccc3Cl)cc2=O)CC1 [Compound 12, 1-((1-acryloylpiperidin-4-yl)methyl)-4-(2-chloro-5-hydroxyphenyl)pyridin-2(1H)-one]",++ (indicates binding activity greater than 10% and up to 20%)
11,"C=CC(=O)N1CCN(Cc2ccc(-c3ccccc3C(F)(F)F)cc2)CC1 [Compound 15, 1-(4-((2′-(trifluoromethyl)biphenyl-4-yl)methyl)piperazin-1-yl)prop-2-en-1-one]",+ (indicates binding activity from 5% to 10%)
12,"C=CC(=O)N1CCN(Cc2ccc(-c3c(C)ccc4[nH]ncc34)cc2)CC1 [Compound 16, 1-(4-(4-(5-methyl-1H-indazol-4-yl)benzyl)piperazin-1-yl)prop-2-en-1-one]",+ (indicates binding activity from 5% to 10%)
13,"C=CC(=O)N1CCN(c2ccc(-c3cc(O)ccc3Cl)c(C(N)=O)c2)CC1 [Compound 10, 4-(4-acryloylpiperazin-1-yl)-2′-chloro-5′-hydroxybiphenyl-2-carboxamide]",+++ (indicates binding activity greater than 20% and up to 30%)
14,"C=CC(=O)N1CCN(c2ccc(-c3cc(O)ccc3Cl)cc2)CC1 [Compound 1, 1-(4-(2′-chloro-5′-hydroxybiphenyl-4-yl)piperazin-1-yl)prop-2-en-1-one]",++++ (indicates binding activity greater than 30%)
15,"C=CC(=O)N1CCN(Cc2ccc(-c3cc(O)ccc3Cl)c(Cl)c2)CC1 [Compound 18, 1-(4-((2,2′-dichloro-5′-hydroxybiphenyl-4-yl)methyl)piperazin-1-yl)prop-2-en-1-one]",++ (indicates binding activity greater than 10% and up to 20%)
16,"C=CC(=O)N1CCN(Cc2ccc(-c3c(C)ccc4[nH]ncc34)c(Cl)c2)CC1 [Compound 19, 1-(4-(3-chloro-4-(5-methyl-1H-indazol-4-yl)benzyl)piperazin-1-yl)prop-2-en-1-one]",++ (indicates binding activity greater than 10% and up to 20%)
17,"C=CC(=O)N1CCN(c2ccc(-c3ccc(O)cc3Cl)cc2)CC1 [Compound 23, 1-(4-(2′-chloro-4′-hydroxybiphenyl-4-yl)piperazin-1-yl)prop-2-en-1-one]",+ (indicates binding activity from 5% to 10%)
18,"C=CC(=O)N1CCN(c2ccc(-c3cc(O)ccc3CC)cc2)CC1 [Compound 5, 1-(4-(2′-ethyl-5′-hydroxybiphenyl-4-yl)piperazin-1-yl)prop-2-en-1-one]",++++ (indicates binding activity greater than 30%)
19,"C=CC(=O)N1CCN(c2ccc(-c3c(C)ccc4[nH]ncc34)cc2)CC1 [Compound 22, 1-(4-(4-(5-methyl-1H-indazol-4-yl)phenyl)piperazin-1-yl)prop-2-en-1-one]",+ (indicates binding activity from 5% to 10%)
20,"C=CC(=O)N1CCN(c2ccc(-c3cc(O)cc(Cl)c3Cl)cc2)CC1 [Compound 4, 1-(4-(2′,3′-dichloro-5′-hydroxybiphenyl-4-yl)piperazin-1-yl)prop-2-en-1-one]",+++ (indicates binding activity greater than 20% and up to 30%)
21,"C=CC(=O)N1CCN(Cc2ccc(-c3cc(O)ccc3Cl)cc2O)CC1 [Compound 20, 1-(4-((2′-chloro-3,5′-dihydroxybiphenyl-4-yl)methyl)piperazin-1-yl)prop-2-en-1-one]",+++ (indicates binding activity greater than 20% and up to 30%)
22,"C=CC(=O)N1CCN(Cc2ccc(-c3cc(O)ccc3Cl)cc2)CC1 [Compound 17, 1-(4-((2′-chloro-5′-hydroxybiphenyl-4-yl)methyl)piperazin-1-yl)prop-2-en-1-one]",++ (indicates binding activity greater than 10% and up to 20%)
23,"C=CC(=O)N1CCC(n2ccc(-c3cc(O)ccc3Cl)cc2=O)CC1 [Compound 6, 1-(1-acryloylpiperidin-4-yl)-4-(2-chloro-5-hydroxyphenyl)pyridin-2(1H)-one]",++ (indicates binding activity greater than 10% and up to 20%)
24,"C=CC(=O)N1CCN(c2ncc(-c3cc(O)ccc3Cl)cn2)CC1 [Compound 7, 1-(4-(5-(2-chloro-5-hydroxyphenyl)pyrimidin-2-yl)piperazin-1-yl)prop-2-en-1-one]",++ (indicates binding activity greater than 10% and up to 20%)
25,"C=CC(=O)N1CCN(c2ccc(-c3cc(O)ccc3Cl)cc2C#N)CC1 [Compound 9, 4-(4-acryloylpiperazin-1-yl)-2′-chloro-5′-hydroxybiphenyl-3-carbonitrile]",++++ (indicates binding activity greater than 30%)
26,"C=CC(=O)N1CCN(c2ccc(-c3cc(O)ccc3Cl)cc2C(N)=O)CC1 [Compound 14, 4-(4-acryloylpiperazin-1-yl)-2′-chloro-5′-hydroxybiphenyl-3-carboxamide]",+++ (indicates binding activity greater than 20% and up to 30%)
